Patent US9017681B2, “Adenylyl cyclases as novel targets for antibactrial interventions” (Cornell Research Foundation, Inc., priority 2007, dated 2015)
Entries after “also recorded” stand apart in the source; their conditions may differ. Where two headings read alike, the source gives them in different places.

Experiments:
[1] = molecular target: T1, human sAC (Homo sapiens, UniProt Q96PN6); test: in vitro adenylyl cyclase assay with purified human sAC protein (cAMP by Correlate-EIA); type: biochemical; conditions: for inhibition at 100 µM: 100 μM of compound
T1 construct: made in house
T1 sequence (Q96PN6 1-469 limits assumed): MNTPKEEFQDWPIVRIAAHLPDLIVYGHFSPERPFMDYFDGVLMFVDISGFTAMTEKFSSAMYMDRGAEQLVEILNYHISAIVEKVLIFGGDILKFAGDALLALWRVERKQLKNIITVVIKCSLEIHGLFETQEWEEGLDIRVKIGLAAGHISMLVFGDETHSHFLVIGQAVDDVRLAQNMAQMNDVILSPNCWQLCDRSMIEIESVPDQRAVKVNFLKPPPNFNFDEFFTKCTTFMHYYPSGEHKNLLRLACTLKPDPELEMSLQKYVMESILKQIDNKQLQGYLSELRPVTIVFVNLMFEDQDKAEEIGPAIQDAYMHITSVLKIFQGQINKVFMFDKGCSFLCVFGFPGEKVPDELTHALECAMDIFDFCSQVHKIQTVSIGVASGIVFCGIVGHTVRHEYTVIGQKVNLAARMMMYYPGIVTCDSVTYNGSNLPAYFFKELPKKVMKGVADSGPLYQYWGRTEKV
Method: Purified human sAC protein was used in an in vitro adenylyl cyclase assay. Purification of the protein is described in detail in Litvin et al. 2003. (J. Biol. Chem. 278:15922-15926). This paper also describes the general conditions for a sAC cyclase assay. The specific conditions for the in vitro assay are as follows.
For basal sAC activity, an assay master mixture with sufficient volume for all reactions was prepared containing:
100 U/ml creatine phosphokinase (CPK)
An aliquot of the master mixture was added to the purified human sAC. The assay mixture also included the indicated concentration of KH compound, or an equivalent volume of vehicle (i.e., DMSO) as control. The reaction was started by adding 5 mM ATP (total assay volume=100 μL). The reaction mixture was incubated at 30° C. for 30 minutes and then stopped by adding 100 μl […]. Stimulated assay conditions involve adding 40 mM bicarbonate and 5 mM CaCl2 to the above master mixture.
(§1) Cyclic AMP levels were measured in each sample using the Correlate-EIA Direct Cyclic AMP assay kit from Assay Designs as per manufacturers instructions.

[2] = system: P. aeruginosa CyaB (a Class III adenylyl cyclase); test: Pseudomonas adenylyl cyclase assay with purified His-CyaB; type: biochemical, Pseudomonas aeruginosa; conditions: increasing concentrations of compound, FIG. 1 / FIG. 2
Method: (§2) FIG. 1. […] The CyaB was heterologously expressed in E. coli as a poly-histidine tagged fusion protein and purified using a nickel column. Adenylyl cyclase activity was determined by measuring cyclic AMP levels using the Correlate-EIA Direct Cyclic AMP assay kit from Assay Designs as per manufacturers instructions.
as §2, with “2.” for “1.”
P. aeruginosa CyaB (a Class III adenylyl cyclase) was heterologously expressed in E. coli as a HIS-tagged, fusion protein. Expression of the fusion protein was induced by Isopropyl β-D-1-thiogalactopyranoside (IPTG) t at 21° C. (empirically found to be best temperature for expression). The His-CyaB fusion protein was purified using a nickel affinity column according to standard protocols in the absence of any reducing agent. Eluted protein was dialyzed into storage buffer consisting of: 50 mM Tris (pH 8.5), 10 mM NaCl, 2 mM MgCl2, and 25% glycerol.
The purified CyaB was assayed for cyclase activity as follows. […]
as §1

SMILES: O=C(CSc1nc2ccccc2[nH]1)N/N=C/c1ccc(O)c(O)c1 [KH7.148]
- inhibition at 100 µM ([1]; BASAL human sAC in vitro activity, read-out: % Inhibition (100 μM), hsACt-Basal): 70%
- inhibition at 100 µM ([1]; stimulated human sAC in vitro activity, read-out: % Inhibition (100 μM), hsACt-Stim.): 80%
- IC50 ([1]; BASAL activity of human sAC in vitro (just Mg-ATP, no calcium or bicarbonate), read-out: hsACt-Basal approximate IC50 (or the dose range where the IC50 should lie)): 10 to 100 µM
- IC50 ([1]; stimulated activity of human sAC in vitro (calcium and bicarbonate stimulated), read-out: hsACt-Stim. approximate IC50 (or the dose range where the IC50 should lie)): 1 to 10 µM
- effect on CyaB adenylyl cyclase activity [2]: inhibitor; also recorded: decrease in the activity
